{"source": "patent US9603877B2", "about": "“Isolated nucleotide molecule and method of sensing and killing of pathogenic microorganism” (priority 2011, dated 2017)", "key": {"[1]": {"target": "T1, Pseudomonas aeruginosa LasR, SEQ ID NO: 1 (UniProt: PSPA7_3898), in sensing device pTetR-LasR-pLuxR-GFP (Pseudomonas aeruginosa, UniProt P25084)", "T1 construct": "expressed in transfected cells; host or cells: E. coli TOP10 (plasmid pTetR-LasR-pLuxR-GFP in pSB1A2)", "T1 sequence (P25084 whole entry M144I)": "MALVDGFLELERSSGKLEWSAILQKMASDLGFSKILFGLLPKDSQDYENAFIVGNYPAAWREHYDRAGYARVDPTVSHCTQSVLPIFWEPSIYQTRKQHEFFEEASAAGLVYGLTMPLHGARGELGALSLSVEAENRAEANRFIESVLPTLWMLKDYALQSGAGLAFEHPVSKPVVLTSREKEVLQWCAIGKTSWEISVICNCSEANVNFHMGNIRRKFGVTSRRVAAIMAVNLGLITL", "assay": "Characterization/transfer function of the LasR sensing device (pTetR-LasR-pLuxR-GFP) with 3OC12HSL, GFP reporter in E. coli TOP10", "type": "cell-based, P. aeruginosa", "description": "Single colonies of pTetR-LasR-pLuxR-GFP (Top10) were each inoculated into 5 ml of pre-warmed supplemented M9 ampicillin for overnight culture in a shaking incubator at 37° C. After overnight growth, the cultures were diluted to OD600 of 0.002 and allowed to incubate further to OD600 of 0.5 or 5.0E7 cfu/ml under the same condition. […] The plate was incubated at 37° C. with rapid shaking in a microplate reader (Biotek) and assayed for green fluorescence. Time-series fluorescence and OD600 data were obtained at intervals of 10 mins for a total run time of 3 hrs. The measurement was zeroed with supplemented M9 to remove background fluorescence and OD600. A relative GFP production rate was derived as a ratio of background subtracted green fluorescence to OD600 value.\nThe four parameters (A, B, C, n) were estimated to obtain the best fit curve by performing a non-linear curve fitting using the experimental results. This curve fitting was performed using MATLAB Curve Fitting Toolbox (The Mathworks, Natwick, Mass., USA)."}, "[2]": {"tested_on": "E. coli carrying pTetR-LasR-pLuxR-E7", "assay": "Characterization of lysis device with 3OC12HSL (OD600 of E. coli carrying pTetR-LasR-pLuxR-E7)", "type": "cell-based", "description": "Characterization of Lysis Device with 3OC12HSL\nOvernight cultures of pTetR-LasR-pLuxR-E7 (Top10) were diluted in supplemented M9 and harvested at an OD600 of 0.5. […] The plate was incubated at 37° C. with rapid shaking in a microplate reader (Biotek) and assayed for cell turbidity. Time-series absorbance at OD600 was obtained at intervals of 10 mins for a total run time of 6 hrs. The result was zeroed with supplemented M9 to remove background absorbance.\nThe system according to various embodiments was designed to release pyocin S5 through lysis upon detection of P. aeruginosa. To determine the lysis activity of the system, the behavior of the E7 lysis protein under the transcriptional control of the sensing device before integrating both the pyocin S5 and E7 genes into the system was characterized. […] To further confirm that the lysis activity may be sustained in the final system including pyocin S5, the morphology of E. coli containing the final system (i.e., pTetR-LasR-pLuxR-S5-pLuxR-E7; FIG. 1B) was monitored using FESEM."}}}
{"smiles": "CCCCCCCCCC(=O)CC(=O)N[C@H]1CCOC1=O", "note": "[3OC12HSL, N-3-oxododecanoyl homoserine lactone]", "values": [{"measurement": "input concentration at which the sensing device saturated", "setting": "[1]; Hill model, >3.3E-7M but <1.0E-6M", "value": "> 330", "unit": "nM"}, {"measurement": "maximum output (GFP production rate) at saturation", "setting": "[1]; Hill model, input concentration >3.3E-7M but <1.0E-6M", "value": 1.96, "unit": "RFU per OD per minute"}, {"measurement": "concentration at which GFP production rate peaked", "setting": "[1]; sharp increase beyond 1.0E-7M, sharp decline after peak", "value": 1000, "unit": "nM"}, {"measurement": "growth/lysis of E. coli (OD600) at 1.0E-6 and 1.0E-4M 3OC12HSL", "setting": "[2]; 1.0E-6 and 1.0E-4M 3OC12HSL", "value": "significant reduction in optical density"}, {"measurement": "growth/lysis of E. coli (OD600) at 1.0E-8M 3OC12HSL", "setting": "[2]; 1.0E-8M 3OC12HSL", "value": "no noticeable transition into a lysis state"}, {"measurement": "minimal effective concentration", "setting": "[2]; Escherichia coli, 2 h, read-out: concentration causing observable cell lysis", "value": "≥ 1", "unit": "µM"}]}
